We go through 1 compound from patent US20020192171A1, “Method for preventing malodor” (priority 2001, published 2002).

One series relates to underarm odor. The series is described as follows: Deodorant value test (modified), odor assessment on axillae of human subjects. It is filed as in vivo. As to conditions: general statement in description. As for the experimental part: A typical test for deodorant effect of the present invention was carried out as follows. The test solution was the composition containing 0.4% monensin. The positive control was 8.2% aluminum chlorhydrate, a level that is used in most deodorant or antiperspirant products on the market and 0.4% chlorhesidine digluconate, a level that is usually used for bacterial killing. The negative control was a vehicle consisting of 60% ethanol and 40% water. Three experienced underarm odor assessors who are able to rank correctly the odor intensities based on the deodorant value test system (U.S. Pat. No. 4,278,658) performed odor assessments. Deodorant assessment scores were recorded according to the malodor category scale, when applied directly to the axillae skin of a panel of human subjects. [table] The described in deodorant value test system has been modified by measuring odor intensity every 24 hours after treatment until odor intensity is detectable (average score 1 or up) on a 0-5 score instead of just 24 hours after In example 2, fifteen subjects selected by experienced odor assessors have average odor score 3.5 (range from score 3-5). […] At 24 hour intervals, each subject was evaluated for underarm odor by averaging the score of the three assessors until odor in test groups was detectable (score 1 or up).

A further series deals with skin. As to conditions: human, in vivo.

Regarding `CC[C@@]1([C@@H]2O[C@@H]([C@H]3O[C@@](O)(CO)[C@H](C)C[C@@H]3C)C[C@@H]2C)CC[C@H]([C@]2(C)CC[C@]3(C[C@H](O)[C@@H](C)[C@@H]([C@@H](C)[C@@H](OC)[C@H](C)C(=O)O)O3)O2)O1` [monensin, Monensin], the “duration of deodorant effect in preventing malodor” value in the series with underarm odor is recorded as “deodorant effect with a longer period than expected”. Also, the skin irritation result in the series on skin is given as “did not cause any irritation”.
